Data as given in publication PMC10302633 (Marine Drugs, 2023).

Tests used:
rat α7 nAChRs = rat α7 nAChRs (Rattus norvegicus, UniProt Q05941); experiment: cell-based; type: cell-based
human α7 nAChRs = human α7 nAChRs (Homo sapiens, UniProt P36544); experiment: cell-based
rat α9α10 nAChRs = rat α9α10 nAChRs (Rattus norvegicus, UniProt P43144+Q9JLB5); type: cell-based
human α9α10 nAChRs = human α9α10 nAChRs (Homo sapiens, UniProt Q9GZZ6+Q9UGM1); type: cell-based
Chain of human α9α10 nAChRs (Q9UGM1 26-479 limits assumed): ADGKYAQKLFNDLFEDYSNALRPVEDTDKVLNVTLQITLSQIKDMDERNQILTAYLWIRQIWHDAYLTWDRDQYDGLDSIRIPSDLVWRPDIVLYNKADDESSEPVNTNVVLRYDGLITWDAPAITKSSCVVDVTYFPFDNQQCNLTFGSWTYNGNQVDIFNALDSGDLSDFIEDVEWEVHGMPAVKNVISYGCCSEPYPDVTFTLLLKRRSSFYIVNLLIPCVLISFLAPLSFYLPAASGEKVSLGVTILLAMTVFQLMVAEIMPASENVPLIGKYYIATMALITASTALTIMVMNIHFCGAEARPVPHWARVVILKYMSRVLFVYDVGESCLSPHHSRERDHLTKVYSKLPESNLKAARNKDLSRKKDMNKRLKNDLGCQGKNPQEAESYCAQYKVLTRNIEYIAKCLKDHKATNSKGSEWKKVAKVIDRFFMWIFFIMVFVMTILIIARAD
Chain of human α9α10 nAChRs (Q9GZZ6 25-450 limits assumed): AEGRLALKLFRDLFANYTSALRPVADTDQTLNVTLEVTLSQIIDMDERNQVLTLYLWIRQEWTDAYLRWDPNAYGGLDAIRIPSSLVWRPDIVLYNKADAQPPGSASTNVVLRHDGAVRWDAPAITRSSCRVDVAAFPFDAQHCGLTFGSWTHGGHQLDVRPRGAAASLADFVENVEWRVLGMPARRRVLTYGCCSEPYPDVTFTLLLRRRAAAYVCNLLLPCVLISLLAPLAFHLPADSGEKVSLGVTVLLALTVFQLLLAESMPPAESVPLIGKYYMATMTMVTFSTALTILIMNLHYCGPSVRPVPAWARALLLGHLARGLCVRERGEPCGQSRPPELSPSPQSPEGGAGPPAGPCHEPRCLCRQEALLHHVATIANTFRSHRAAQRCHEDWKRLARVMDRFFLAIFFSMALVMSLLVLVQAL

Chain of rat α7 nAChRs (Q05941 23-502 limits assumed): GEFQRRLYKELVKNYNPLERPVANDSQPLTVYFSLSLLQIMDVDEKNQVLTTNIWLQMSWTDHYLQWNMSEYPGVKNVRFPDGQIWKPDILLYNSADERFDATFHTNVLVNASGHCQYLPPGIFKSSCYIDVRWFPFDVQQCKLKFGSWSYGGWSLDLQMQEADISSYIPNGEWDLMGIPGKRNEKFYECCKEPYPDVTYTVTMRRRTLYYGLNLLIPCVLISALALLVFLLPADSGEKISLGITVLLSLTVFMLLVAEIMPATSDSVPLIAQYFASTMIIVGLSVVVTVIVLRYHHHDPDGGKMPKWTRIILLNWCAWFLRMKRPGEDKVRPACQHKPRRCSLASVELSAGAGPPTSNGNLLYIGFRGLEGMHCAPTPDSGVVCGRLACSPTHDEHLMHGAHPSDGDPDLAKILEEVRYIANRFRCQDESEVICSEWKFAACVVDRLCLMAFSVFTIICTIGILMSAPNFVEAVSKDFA
Chain of human α7 nAChRs (P36544 23-502 limits assumed): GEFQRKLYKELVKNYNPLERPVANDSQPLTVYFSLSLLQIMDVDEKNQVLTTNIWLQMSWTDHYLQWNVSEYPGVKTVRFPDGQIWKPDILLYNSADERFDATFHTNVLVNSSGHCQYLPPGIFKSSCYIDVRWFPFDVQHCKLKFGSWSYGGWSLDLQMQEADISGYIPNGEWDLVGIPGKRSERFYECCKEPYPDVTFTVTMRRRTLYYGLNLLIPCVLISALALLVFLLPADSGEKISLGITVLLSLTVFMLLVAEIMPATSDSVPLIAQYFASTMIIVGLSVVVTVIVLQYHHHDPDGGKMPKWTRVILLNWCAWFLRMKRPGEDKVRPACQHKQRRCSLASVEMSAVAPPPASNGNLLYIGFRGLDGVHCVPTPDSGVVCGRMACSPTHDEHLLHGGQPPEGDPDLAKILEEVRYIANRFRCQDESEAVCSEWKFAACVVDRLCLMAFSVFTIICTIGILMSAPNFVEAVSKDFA
Chain of rat α9α10 nAChRs (P43144 26-479 limits assumed): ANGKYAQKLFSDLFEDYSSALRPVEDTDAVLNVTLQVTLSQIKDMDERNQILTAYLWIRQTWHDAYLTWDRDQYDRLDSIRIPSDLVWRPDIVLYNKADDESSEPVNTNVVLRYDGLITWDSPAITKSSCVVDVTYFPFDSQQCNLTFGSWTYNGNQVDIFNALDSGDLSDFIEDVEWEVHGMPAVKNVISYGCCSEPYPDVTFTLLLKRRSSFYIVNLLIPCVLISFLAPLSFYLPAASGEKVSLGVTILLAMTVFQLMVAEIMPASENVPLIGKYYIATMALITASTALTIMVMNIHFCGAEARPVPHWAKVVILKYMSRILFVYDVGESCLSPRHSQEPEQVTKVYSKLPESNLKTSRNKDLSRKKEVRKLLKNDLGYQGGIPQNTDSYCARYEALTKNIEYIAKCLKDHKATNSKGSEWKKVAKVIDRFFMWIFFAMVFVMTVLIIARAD
Chain of rat α9α10 nAChRs (Q9JLB5 25-447 limits assumed): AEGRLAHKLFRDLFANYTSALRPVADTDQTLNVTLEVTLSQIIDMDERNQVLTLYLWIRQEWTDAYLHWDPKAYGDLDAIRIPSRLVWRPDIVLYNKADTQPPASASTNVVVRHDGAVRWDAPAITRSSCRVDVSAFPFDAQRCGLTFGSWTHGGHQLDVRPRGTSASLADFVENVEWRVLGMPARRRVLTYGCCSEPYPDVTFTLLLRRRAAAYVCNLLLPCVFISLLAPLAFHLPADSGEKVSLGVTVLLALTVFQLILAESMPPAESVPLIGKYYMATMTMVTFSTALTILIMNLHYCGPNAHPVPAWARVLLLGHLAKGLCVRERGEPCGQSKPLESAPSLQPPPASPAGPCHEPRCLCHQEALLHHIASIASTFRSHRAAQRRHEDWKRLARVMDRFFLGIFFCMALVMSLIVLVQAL

SMILES: N=C(N)NCCC[C@H](NC(=O)[C@@H]1CSSC[C@@H]2NC(=O)[C@@H](NC(=O)CN)CSSC[C@H](NC(=O)[C@H](CCCNC(=N)N)NC(=O)[C@@H]3CCCN3C(=O)[C@H](CC(=O)O)NC(=O)[C@H](CO)NC2=O)C(=O)N[C@@H](CCCNC(=N)N)C(=O)N[C@@H](Cc2ccc(O)cc2)C(=O)N[C@@H](CCCNC(=N)N)C(=O)N1)C(=O)O [RgIA]
- Hill Slope (rat α7 nAChRs): 0.8 (0.4–1.1)
- IC50 (rat α7 nAChRs): 5.31 µM
- inhibition of ACh-evoked currents (rat α7 nAChRs): 60%
- Hill Slope (human α7 nAChRs): 0.7 (0.4–1.0)
- IC50 (human α7 nAChRs): 4.61 µM
- Hill Slope (rat α9α10 nAChRs): 0.8 (0.7–0.9)
- Hill Slope (human α9α10 nAChRs): 0.5 (0.4–0.6)
